Literature values, collected in US20090081206A1, “METHOD AND PHARMACEUTICAL COMPOSITION FOR INHIBITING PREMATURE RAPTURE OF FETAL MEMBRANES, RIPENING OF UTERINE CERVIX AND PRETERM LABOR IN MAMMALS” (priority 1997, published 2009).
Read-outs that look alike come from different tables or passages of the source.

Legend:
[1] = severe pregnancy-induced hypertension
[2] = patches, only 13 cases studied
[3] = intravaginal tablets
[4] = for need for additional oxytocin: compared with 100% in placebo
[5] = 3-mg intravaginal pessaries, mixed group of multigravidae and primigravidae
[6] = women with cervical Bishop score of 4-5
[7] = in vivo
[8] = not given; remark: listed apart in the source
[9] = after single 3-mg suppository alone

Structure (SMILES)	reduction of capillary wedge pressure [1]	reduction of mean arterial blood pressure [1]	suppression of preterm labor, safety and tolerability [2]	patients induced successfully (achieving active labor) ([3]; multigravidae, 1-mg group)	patients induced successfully (achieving active labor) ([3]; multigravidae, 5-mg group)	patients induced successfully (achieving active labor) ([3]; primigravidae, 1-mg group)	patients induced successfully (achieving active labor) ([3]; primigravidae, 5-mg group)	established labor and delivered their infants without oxytocin augmentation ([4]; multigravidae, 2.5-mg vaginal suppositories)	need for additional oxytocin ([4]; multigravidae)	established labor and delivered their infants without oxytocin augmentation ([4]; primigravidae, 5-mg vaginal suppositories)	need for additional oxytocin ([4]; primigravidae)	treatment-to-delivery interval ([4]; shorter compared with controls)	success rate for induced labor [5]	mean time to labor [9]	patients in whom labor was achieved [9]	additional oxytocin augmentation needed (multifarious women)	additional oxytocin augmentation needed (nulliparous women)	vaginal birth within 24 hours [6]	plasma half-life [7]	antidiuretic and pressor activity relative to vasopressin [8]
O=[N+]([O-])OCC(CO[N+](=O)[O-])O[N+](=O)[O-] [GTN, glycerol trinitrate]	30%	25%	safe, well-tolerated and non-invasive method of suppressing preterm labor	–	–	–	–	–	–	–	–	–	–	–	–	–	–	–	–	–
CCCCC[C@H](O)/C=C/[C@H]1[C@H](O)CC(=O)[C@@H]1C/C=C\CCCC(=O)O [PGE2, prostaglandin E2]	–	–	–	39.1%	62.2%	29.6%	62.9%	81%	19.1%	63%	37.5%	7.6 to 11.6 h	55%	1.5 h	98%	14%	71%	17 of 19	–	–
CC[C@H](C)[C@@H]1NC(=O)[C@H](Cc2ccc(O)cc2)NC(=O)[C@@H](N)CSSC[C@@H](C(=O)N2CCC[C@H]2C(=O)N[C@@H](CC(C)C)C(=O)NCC(N)=O)NC(=O)[C@H](CC(N)=O)NC(=O)[C@H](CCC(N)=O)NC1=O [oxytocin]	–	–	–	–	–	–	–	–	–	–	–	–	–	–	–	–	–	8 of 19	5 to 17 min	1%
